Measured values: PMC3823594, “Conformational Changes Underlying Pore Dilation in the Cytoplasmic Domain of Mammalian Inward Rectifier K^+ Channels” (PLoS ONE, 2013)
Positions count from the first letter of the chain named.

Columns and labels:
Test in all cases: Two-electrode voltage clamp, ACh-dependent (m2R-dependent) K+ current activation
Kir3.2 WT = biological target: T1, Kir3.2 WT (Mus musculus, UniProt P48542); format: cell-based; conditions: Kir3.2 WT with porcine m2R in Xenopus oocytes; −120 mV; Hill equation fit
T1 sequence (P48542 1-425): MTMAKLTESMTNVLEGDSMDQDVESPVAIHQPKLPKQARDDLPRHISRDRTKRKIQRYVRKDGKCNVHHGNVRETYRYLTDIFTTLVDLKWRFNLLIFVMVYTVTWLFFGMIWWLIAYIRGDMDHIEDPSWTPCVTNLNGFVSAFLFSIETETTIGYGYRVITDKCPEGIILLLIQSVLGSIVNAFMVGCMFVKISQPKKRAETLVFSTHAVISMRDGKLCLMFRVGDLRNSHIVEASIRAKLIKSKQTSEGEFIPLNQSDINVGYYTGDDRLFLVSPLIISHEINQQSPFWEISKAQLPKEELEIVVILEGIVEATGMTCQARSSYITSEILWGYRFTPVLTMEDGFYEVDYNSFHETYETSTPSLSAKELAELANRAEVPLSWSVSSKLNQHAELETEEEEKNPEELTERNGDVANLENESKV
T1 sequence (P06199 1-466 partner): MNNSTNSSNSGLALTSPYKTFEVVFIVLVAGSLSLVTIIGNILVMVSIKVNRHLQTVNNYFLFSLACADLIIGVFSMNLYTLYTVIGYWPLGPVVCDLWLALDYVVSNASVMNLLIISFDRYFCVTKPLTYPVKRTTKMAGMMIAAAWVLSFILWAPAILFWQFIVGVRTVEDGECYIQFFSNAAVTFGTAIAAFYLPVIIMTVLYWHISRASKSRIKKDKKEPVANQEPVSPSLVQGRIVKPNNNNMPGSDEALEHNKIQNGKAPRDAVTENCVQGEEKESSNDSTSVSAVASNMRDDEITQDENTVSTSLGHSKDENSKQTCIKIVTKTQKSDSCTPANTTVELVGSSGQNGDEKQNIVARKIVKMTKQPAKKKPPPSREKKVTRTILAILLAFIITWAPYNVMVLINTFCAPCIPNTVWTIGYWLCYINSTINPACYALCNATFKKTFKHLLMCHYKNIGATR
Description: (§1) The mouse Kir3.2d isoform was subjected to functional analyses. The amino acid numbers correspond to the longest mouse Kir3.2 isoform. Point mutations were introduced using the QuikChange site-directed mutagenesis kit (Stratagene, La Jolla, CA), and the presence of the mutations was confirmed by direct DNA sequencing. The care of Xenopus laevis was in accordance with the guideline of the Institute of Experimental Animal Sciences, Osaka University. The protocol was approved by the Animal Experiment Committee of Osaka University. The frogs were deeply anesthetized by immersing in 0.2% tricaine methanesulfonate for 20 min at 18°C. A portion of an ovary lobe was surgically removed and incubated with collagenase to remove follicular cells. The oocytes were injected with the cRNAs of Kir3.2 and porcine m2-muscarinic receptor (m2R), and maintained in modified Barth’s solution at 18°C with daily solution changes. Electrophysiological studies were undertaken 48–72 h later at room temperature (20–25°C). Two-electrode voltage-clamp recordings from oocytes were performed using a GeneClamp 500B amplifier (Axon Instruments, Sunnyvale, CA). […] The bath solution contained 40 mM KCl, 50 mM NaCl, 3 mM MgCl2, 0.15 mM niflumic acid, and 5 mM HEPES-KOH (pH 7.4). The currents were recorded in the absence or presence of various concentrations of acetylcholine (ACh). Ba^2+ (3 mM) was added at the end of the recording to estimate the endogenous leak current. The data are expressed as mean values ± standard error of the mean. For the quantitative estimation of ACh-dependent current responses of the wild-type (WT) and mutant channels, the current amplitudes at the end of test pulses at each ACh concentration ([ACh]) were fitted using the following equation:
(§2) I=min+[(max−min)/(1+(EC50/[ACh])^nH)]
(§3) where I is the current amplitude measured at the [ACh], n H is the Hill coefficient, and EC50 is the concentration that induces 50% of the maximal response. […] The values of n H and EC50 were calculated using a non-linear least-squares best fit (SigmaPlot 9; Systat Software). Statistical analyses were performed by one-way ANOVA with post-hoc tests.

Kir3.2 M313A = biological target: T2, Kir3.2 M313A (Mus musculus, UniProt P48542, I313A); format: cell-based; conditions: Kir3.2 M313A with porcine m2R in Xenopus oocytes; −120 mV; Hill equation fit
T2 sequence (P48542 19-425 I313A): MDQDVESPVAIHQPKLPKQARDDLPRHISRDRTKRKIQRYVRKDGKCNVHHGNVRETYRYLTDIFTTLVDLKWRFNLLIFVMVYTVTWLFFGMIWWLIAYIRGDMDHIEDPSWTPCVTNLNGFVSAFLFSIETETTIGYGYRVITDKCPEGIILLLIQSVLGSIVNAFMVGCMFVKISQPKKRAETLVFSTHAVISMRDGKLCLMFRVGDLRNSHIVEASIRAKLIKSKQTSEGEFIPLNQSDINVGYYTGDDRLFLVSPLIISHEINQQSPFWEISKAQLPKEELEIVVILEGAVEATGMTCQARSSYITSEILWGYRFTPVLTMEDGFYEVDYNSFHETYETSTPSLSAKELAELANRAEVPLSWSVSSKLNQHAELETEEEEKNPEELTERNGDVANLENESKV
T2 sequence (P06199 1-466 partner): T1 sequence (P06199 1-466 partner)
Description: as §1, §2, §3

Kir3.2 M313R = biological target: T3, Kir3.2 M313R (Mus musculus, UniProt P48542, I313R); format: cell-based; conditions: Kir3.2 M313R with porcine m2R in Xenopus oocytes; −120 mV; Hill equation fit, min not zero
T3 sequence (P48542 19-425 I313R): T2 sequence (P48542 19-425 I313A) with A295R
T3 sequence (P06199 1-466 partner): T1 sequence (P06199 1-466 partner)
Description: as §1, §2, §3

Kir3.2 M313D = format: cell-based, mouse; conditions: Kir3.2 M313D with porcine m2R in Xenopus oocytes; −120 mV; Hill equation fit, min not zero
Description: as §1, §2, §3

Kir3.2 M313Q = format: cell-based, mouse; conditions: Kir3.2 M313Q with porcine m2R in Xenopus oocytes; −120 mV; Hill equation fit
Description: as §1, §2, §3

For `CC(=O)OCC[N+](C)(C)C` [ACh, acetylcholine], the Hill coefficient (Kir3.2 WT) was 0.83 ± 0.06, the Hill coefficient (Kir3.2 M313A) was 1.05 ± 0.08 and the Hill coefficient (Kir3.2 M313R) was 0.52 ± 0.08. The EC50 (Kir3.2 M313D) was 130 ± 10 nM, the Hill coefficient (Kir3.2 M313D) was 0.73 ± 0.06 and the EC50 (Kir3.2 M313Q) was 50 ± 5 nM. For the same compound, the Hill coefficient (Kir3.2 M313Q) was 0.81 ± 0.04.
